The values below come from ChEMBL document CHEMBL1165965, “Synthesis and structure-activity relationships of 1,2,3,4-tetrahydropyrido[2,3-b]pyrazines as potent and selective inhibitors of the anaplastic lymphoma kinase” (Bioorg Med Chem, 2010).

The target of experiment [1] is Serine/threonine-protein kinase PLK1 (Homo sapiens) (UniProt P53350). In words: Inhibition of PLK1 at 1 uM.
For experiment [2], the target named is T1, Non-receptor tyrosine-protein kinase TNK1 (Homo sapiens) (UniProt Q13470).
T1 sequence (whole entry): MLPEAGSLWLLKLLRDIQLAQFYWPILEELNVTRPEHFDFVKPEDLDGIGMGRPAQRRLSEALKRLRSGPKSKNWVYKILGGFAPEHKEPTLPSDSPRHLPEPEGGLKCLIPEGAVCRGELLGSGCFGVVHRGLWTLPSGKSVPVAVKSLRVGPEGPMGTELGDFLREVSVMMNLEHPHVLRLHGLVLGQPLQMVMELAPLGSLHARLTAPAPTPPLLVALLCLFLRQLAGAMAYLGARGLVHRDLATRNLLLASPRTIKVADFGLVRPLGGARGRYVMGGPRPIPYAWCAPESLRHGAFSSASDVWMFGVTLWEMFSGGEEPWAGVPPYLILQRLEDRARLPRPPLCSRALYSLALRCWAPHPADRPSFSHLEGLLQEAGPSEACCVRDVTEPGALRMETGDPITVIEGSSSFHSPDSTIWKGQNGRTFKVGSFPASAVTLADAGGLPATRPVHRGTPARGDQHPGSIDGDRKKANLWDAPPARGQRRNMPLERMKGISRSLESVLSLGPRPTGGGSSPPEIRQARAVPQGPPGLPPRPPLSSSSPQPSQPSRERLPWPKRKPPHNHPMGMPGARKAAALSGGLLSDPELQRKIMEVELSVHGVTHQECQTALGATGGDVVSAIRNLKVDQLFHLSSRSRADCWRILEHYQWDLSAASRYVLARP
Nature of the experiment: Inhibition of TNK1 at 1 uM.

Experiment [3] concerns the target T2, Serine/threonine-protein kinase ICK (Homo sapiens) (UniProt Q9UPZ9).
T2 sequence (whole entry): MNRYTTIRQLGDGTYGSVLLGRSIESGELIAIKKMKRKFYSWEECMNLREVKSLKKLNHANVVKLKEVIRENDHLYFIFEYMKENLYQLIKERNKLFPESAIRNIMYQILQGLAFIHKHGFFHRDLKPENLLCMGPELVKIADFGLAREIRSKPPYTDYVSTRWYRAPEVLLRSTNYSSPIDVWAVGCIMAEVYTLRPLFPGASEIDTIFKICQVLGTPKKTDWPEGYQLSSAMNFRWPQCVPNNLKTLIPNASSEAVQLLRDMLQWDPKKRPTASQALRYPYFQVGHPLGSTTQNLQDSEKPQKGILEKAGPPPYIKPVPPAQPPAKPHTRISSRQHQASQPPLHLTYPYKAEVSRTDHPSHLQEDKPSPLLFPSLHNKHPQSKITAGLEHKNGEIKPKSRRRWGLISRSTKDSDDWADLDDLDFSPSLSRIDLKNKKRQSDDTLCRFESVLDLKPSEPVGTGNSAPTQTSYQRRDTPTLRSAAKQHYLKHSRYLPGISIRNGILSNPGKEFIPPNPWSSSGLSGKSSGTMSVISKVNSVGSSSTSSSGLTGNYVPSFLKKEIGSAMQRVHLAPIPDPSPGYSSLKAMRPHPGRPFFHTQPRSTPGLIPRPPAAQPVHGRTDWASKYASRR
Nature of the experiment: Inhibition of ICK at 1 uM.

The target of experiment [4] is T3, Myosin-IIIb (Homo sapiens) (UniProt Q8WXR4).
T3 sequence (whole entry): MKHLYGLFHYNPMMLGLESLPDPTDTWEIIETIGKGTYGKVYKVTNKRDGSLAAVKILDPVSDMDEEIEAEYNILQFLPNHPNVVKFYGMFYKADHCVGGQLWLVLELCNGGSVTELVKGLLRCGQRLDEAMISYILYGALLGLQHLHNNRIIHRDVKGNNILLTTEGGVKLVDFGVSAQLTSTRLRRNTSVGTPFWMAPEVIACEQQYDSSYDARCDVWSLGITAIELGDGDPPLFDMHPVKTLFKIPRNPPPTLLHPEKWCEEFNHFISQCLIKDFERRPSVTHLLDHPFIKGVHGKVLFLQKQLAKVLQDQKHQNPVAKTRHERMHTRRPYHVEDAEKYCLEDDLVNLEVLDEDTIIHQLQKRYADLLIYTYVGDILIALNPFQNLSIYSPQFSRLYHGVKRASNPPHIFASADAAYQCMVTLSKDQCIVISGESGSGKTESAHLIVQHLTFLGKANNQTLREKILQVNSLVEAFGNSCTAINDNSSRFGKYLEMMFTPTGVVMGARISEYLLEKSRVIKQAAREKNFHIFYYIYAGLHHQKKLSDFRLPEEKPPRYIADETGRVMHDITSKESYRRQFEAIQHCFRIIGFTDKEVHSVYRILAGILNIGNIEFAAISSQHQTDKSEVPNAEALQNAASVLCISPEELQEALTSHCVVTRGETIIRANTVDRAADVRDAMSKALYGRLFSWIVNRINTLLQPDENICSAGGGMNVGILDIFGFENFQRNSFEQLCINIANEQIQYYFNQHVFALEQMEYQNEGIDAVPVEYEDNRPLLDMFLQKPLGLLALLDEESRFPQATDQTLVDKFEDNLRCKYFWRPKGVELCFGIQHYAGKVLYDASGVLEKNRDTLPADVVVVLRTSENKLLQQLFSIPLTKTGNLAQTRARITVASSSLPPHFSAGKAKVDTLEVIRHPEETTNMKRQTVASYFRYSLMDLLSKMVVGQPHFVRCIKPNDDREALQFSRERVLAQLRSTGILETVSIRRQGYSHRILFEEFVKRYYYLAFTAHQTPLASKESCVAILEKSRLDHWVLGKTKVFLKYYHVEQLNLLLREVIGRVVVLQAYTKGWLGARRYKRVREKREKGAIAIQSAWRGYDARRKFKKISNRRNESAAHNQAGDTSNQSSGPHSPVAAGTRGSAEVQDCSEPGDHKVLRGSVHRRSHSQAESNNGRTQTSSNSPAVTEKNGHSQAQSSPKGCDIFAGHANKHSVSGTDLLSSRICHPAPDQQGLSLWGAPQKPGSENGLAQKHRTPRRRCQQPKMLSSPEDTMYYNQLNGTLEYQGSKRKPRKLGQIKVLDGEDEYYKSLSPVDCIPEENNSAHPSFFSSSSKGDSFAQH
In words: Inhibition of MYO3B at 1 uM.

The target of experiment [5] is T4, Myosin light chain kinase family member 4 (Homo sapiens) (UniProt Q86YV6).
T4 sequence (whole entry): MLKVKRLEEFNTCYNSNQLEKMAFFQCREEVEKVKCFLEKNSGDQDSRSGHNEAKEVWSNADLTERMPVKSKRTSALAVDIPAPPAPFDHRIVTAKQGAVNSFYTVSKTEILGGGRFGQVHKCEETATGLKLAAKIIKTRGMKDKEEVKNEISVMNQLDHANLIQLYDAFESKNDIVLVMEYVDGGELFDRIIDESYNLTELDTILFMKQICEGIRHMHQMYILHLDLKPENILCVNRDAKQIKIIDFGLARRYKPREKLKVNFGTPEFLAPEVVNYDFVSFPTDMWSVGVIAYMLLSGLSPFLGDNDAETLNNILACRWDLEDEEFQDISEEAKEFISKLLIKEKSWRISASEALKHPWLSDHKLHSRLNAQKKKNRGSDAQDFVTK
Nature of the experiment: Inhibition of SgK085 at 1 uM.

Some results are limits rather than exact numbers.

Chain of Serine/threonine-protein kinase PLK1 (Homo sapiens) (P53350 whole entry): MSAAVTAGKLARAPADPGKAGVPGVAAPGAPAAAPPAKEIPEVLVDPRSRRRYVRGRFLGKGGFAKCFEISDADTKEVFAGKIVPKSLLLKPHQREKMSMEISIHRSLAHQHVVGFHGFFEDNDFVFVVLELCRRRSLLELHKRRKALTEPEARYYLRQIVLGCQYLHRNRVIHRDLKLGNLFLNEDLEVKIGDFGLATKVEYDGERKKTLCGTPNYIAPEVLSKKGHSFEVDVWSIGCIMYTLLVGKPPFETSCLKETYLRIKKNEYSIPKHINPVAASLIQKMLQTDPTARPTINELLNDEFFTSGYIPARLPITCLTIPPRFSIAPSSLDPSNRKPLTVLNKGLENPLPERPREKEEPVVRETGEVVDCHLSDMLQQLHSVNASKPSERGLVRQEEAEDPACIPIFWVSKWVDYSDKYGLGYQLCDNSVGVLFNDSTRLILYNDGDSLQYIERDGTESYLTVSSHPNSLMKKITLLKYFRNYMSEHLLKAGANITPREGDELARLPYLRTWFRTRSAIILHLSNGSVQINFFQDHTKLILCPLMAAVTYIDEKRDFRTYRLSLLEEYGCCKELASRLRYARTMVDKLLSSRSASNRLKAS

As to `O=C(c1ccc(-c2cnc3c(c2)N(Cc2cc(Cl)ccc2C(F)(F)F)CCN3)cc1)N1CCCCC1`, the inhibition in experiment [1] and in experiment [2] was < 50% throughout.
Regarding `CN1CCN(c2ccc(-c3cnc4c(c3)N(Cc3c(F)ccc(F)c3Cl)CCN4)cn2)CC1`, the inhibition in experiment [3], in experiment [4], in experiment [1], in experiment [5] and in experiment [2] was < 50% throughout.
Consider `COC1CCN(C(=O)c2ccc(-c3cnc4c(c3)N(Cc3cc(Cl)ccc3C(F)(F)F)CCN4)cc2)CC1`, for which the inhibition in experiment [1] and in experiment [2] was < 50% throughout.
Turning to `O=C(O)c1ccc(-c2cnc3c(c2)N(Cc2cc(Cl)ccc2C(F)(F)F)CCN3)cc1`, the inhibition in experiment [1] and in experiment [2] was < 50% in each case.
With `FC(F)(F)c1ccc(Cl)cc1CN1CCNc2ncc(-c3ccnc(N4CCNCC4)c3)cc21`, the inhibition in experiment [3], in experiment [4], in experiment [1], in experiment [5] and in experiment [2] was < 50% each time.
With `CN1CCN(c2ccc(-c3cnc4c(c3)N(Cc3cc(Cl)ccc3Cl)CCN4)cn2)CC1`, the inhibition in experiment [3], in experiment [4], in experiment [1], in experiment [5] and in experiment [2] was < 50% throughout.
Take `O=C(c1ccc(-c2cnc3c(c2)N(Cc2cc(Cl)ccc2C(F)(F)F)CCN3)cc1)N1CCC(N2CCCC2)CC1`: the results for the inhibition in experiment [1] and in experiment [2] were < 50% and 81.7%, respectively.
Regarding `CN1CCN(c2ccc(-c3cnc4c(c3)N(Cc3cc(Cl)ccc3C(F)(F)F)CCN4)cn2)CC1`, the inhibition in experiment [3], in experiment [4], in experiment [1], in experiment [5] and in experiment [2] was < 50% in each case.
In the case of `CC(=O)N1CCN(c2cc(-c3cnc4c(c3)N(Cc3cc(Cl)ccc3C(F)(F)F)CCN4)ccn2)CC1`, the inhibition in experiment [3], in experiment [4], in experiment [1], in experiment [5] and in experiment [2] was < 50% in each case.
In the case of `CN1CCN(c2ccc(-c3cnc4c(c3)N(Cc3cc(F)ccc3F)CCN4)cn2)CC1`, the inhibition in experiment [3] is < 50%; in experiment [4], < 50%; in experiment [1] it was < 50%; in experiment [5], < 50%; in experiment [2] it was 58.2%.

The term inhibition denotes the share of the control response that was lost under treatment. Read a low inhibition as little suppression.
